The values that follow are results of earlier work, collected in patent publication US20200016283A1, “COMBINATION THERAPY COMPRISING A RADIOPHARMACEUTICAL AND A DNA-REPAIR INHIBITOR” (Bayer AS, priority 2017, published 2020).

For this data set the following is noted: complexed at ambient temperature in aqueous solutions.

On to `Cn1ccc(C(=O)NCCN(CCNC(=O)c2ccn(C)c(=O)c2O)CC(Cc2ccc(CC(=O)CCC(=O)O)cc2)CN(CCNC(=O)c2ccn(C)c(=O)c2O)CCNC(=O)c2ccn(C)c(=O)c2O)c(O)c1=O` [IV′], for which the “Stability of the Th-227 complex” value is given as “highly stable”.
